Reference: patent US9387209B2, “Histone deacetylases (HDACs) inhibitors” (ANNJI PHARMACEUTICAL CO., LTD., priority 2012, dated 2016)
Read-outs that look alike come from different tables or passages of the source.

How the values were obtained:
[1] = biological target: T1, human histone deacetylases (HDAC) 8 (Homo sapiens, UniProt Q9BY41); experiment: HDAC enzymatic assay, HDAC8; assay type: biochemical
T1 sequence (Q9BY41 1-377): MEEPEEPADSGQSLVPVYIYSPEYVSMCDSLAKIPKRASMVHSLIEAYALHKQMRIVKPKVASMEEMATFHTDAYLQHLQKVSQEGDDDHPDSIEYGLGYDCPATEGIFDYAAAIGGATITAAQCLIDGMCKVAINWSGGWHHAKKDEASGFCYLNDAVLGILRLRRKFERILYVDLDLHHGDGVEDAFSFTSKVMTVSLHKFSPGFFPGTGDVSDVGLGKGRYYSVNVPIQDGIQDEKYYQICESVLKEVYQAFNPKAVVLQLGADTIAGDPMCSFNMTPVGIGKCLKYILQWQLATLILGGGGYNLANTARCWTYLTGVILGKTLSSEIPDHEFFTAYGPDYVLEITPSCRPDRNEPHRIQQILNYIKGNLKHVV

[2] = biological target: T2, human histone deacetylases (HDAC) 6 (Homo sapiens, UniProt Q9UBN7); experiment: HDAC enzymatic assay, HDAC6; assay type: biochemical; conditions: for selective inhibitions on HDAC6: HDAC6 versus other HDACs
T2 sequence (Q9UBN7 1-1215): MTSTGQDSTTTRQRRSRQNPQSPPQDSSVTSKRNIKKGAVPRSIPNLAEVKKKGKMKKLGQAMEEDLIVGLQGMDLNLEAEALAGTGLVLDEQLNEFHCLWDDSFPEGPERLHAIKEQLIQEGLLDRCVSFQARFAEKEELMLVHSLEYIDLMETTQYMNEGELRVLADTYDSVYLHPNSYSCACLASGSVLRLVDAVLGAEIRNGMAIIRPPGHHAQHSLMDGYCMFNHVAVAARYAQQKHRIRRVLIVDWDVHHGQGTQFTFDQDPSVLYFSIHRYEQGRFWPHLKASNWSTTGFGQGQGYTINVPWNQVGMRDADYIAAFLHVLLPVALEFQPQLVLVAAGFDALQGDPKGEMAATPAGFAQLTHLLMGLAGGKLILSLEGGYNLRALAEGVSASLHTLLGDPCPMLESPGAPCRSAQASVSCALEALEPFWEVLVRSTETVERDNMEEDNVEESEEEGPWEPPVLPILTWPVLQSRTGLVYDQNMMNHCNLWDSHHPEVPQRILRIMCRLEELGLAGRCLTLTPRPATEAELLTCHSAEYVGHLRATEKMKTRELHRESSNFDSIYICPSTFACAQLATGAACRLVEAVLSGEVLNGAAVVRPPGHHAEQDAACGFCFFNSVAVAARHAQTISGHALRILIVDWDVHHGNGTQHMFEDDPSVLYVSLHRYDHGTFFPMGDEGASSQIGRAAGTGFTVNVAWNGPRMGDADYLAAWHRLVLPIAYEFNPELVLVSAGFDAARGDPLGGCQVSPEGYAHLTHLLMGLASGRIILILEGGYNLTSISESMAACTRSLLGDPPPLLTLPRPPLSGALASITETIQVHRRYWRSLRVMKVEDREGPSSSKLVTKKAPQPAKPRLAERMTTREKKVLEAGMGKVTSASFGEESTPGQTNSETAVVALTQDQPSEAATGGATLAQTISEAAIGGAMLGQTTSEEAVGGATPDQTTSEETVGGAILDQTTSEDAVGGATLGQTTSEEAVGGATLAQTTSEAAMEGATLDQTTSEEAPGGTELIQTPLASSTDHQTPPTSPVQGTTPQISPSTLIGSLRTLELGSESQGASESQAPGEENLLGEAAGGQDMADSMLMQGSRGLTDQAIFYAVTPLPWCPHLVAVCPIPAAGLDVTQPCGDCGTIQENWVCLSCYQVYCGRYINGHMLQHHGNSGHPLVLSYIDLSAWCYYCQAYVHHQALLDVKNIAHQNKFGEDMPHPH

[3] = system: PC 12 cells; experiment: Neurite synaptic uptake activity (FM1-43), PC 12; assay type: cell-based; conditions: Rattus norvegicus, NGF positive control taken as 100%, read-out: uptake of dye FM1-43 EC50
Method: (§1) Neurite Synaptic Uptake Activity Analysis.
(§2) The effects of compounds on the neuronal synapse uptake of fluorescent indicator FM1-43 were assayed. The uptake of the dye indicated the synaptic function of the neurites. PC 12 and SH-SY5Y cells were used. Cells in experimental groups were treated with a test compound and FM1-43; Cells in positive control were treated with NGF and FM1-43; Cells in negative control were treated with a vehicle and FM1-43. The fluorescence in the positive control were taken as 100%.

[4] = system: PC 12 cells; experiment: Neurite outgrowth assay, PC 12; assay type: cell-based; conditions: Rattus norvegicus
[5] = biological target: human histone deacetylases (HDAC) 1 (Homo sapiens, UniProt Q13547); experiment: HDAC enzymatic assay, HDAC1; assay type: biochemical; conditions: read-out: IC50 HDAC1 (grading)
[6] = system: SH-SY5Y cells; experiment: Neurite synaptic uptake activity (FM1-43), SH-SY5Y; assay type: cell-based; conditions: Homo sapiens, NGF positive control taken as 100%, read-out: uptake of dye FM1-43 EC50
Method: as §1, §2

[7] = system: SH-SY5Y cells; experiment: Neurite outgrowth assay, SH-SY5Y; assay type: cell-based; conditions: Homo sapiens
[8] = MTT or SRB assay for cytotoxicity, HepG2; assay type: cell-based; conditions: human, HepG2 cells, read-out: cytotoxicity IC50 (grading) HepG2
Method: (§3) MTT or SRB Assays for Cytotoxicities of HDAC Inhibitors.
(§4) These compounds were assayed for cytotoxicities to the following cells: A549 cells (adenocarcinomic human alveolar basal epithelial cells), HCT-116 cells (human colon carcinoma cells). PANC-1 cells (human pancreatic carcinoma, epithelial-like cell line) and HepG2 cells (human liver hepatocellular carcinoma cell line), neuronal cells PC12 (rat pheochromocytoma cell line) and SH-SY5Y (human neuroblastoma cell line). MTT (3-[4,5-dimethylthiazol-2-yl]2,5-diphenyl-tetrazolium bromide) reduction was collaborated by using trypan blue exclusion assay.

[9] = MTT or SRB assay for cytotoxicity, A549; assay type: cell-based; conditions: human, A549 cells, read-out: cytotoxicity IC50 (grading) A549
Method: as §3, §4

[10] = MTT or SRB assay for cytotoxicity, HCT116; assay type: cell-based; conditions: human, HCT-116 cells, read-out: cytotoxicity IC50 (grading) HCT116
Method: as §3, §4

[11] = MTT or SRB assay for cytotoxicity, PANC1; assay type: cell-based; conditions: human, PANC-1 cells, read-out: cytotoxicity IC50 (grading) PANC1
Method: as §3, §4

[12] = HDAC8, read-out: IC50 HDAC8 (grading)
[13] = HDAC6, read-out: IC50 HDAC6 (grading)

Chain of human histone deacetylases (HDAC) 1 (Q13547 whole entry): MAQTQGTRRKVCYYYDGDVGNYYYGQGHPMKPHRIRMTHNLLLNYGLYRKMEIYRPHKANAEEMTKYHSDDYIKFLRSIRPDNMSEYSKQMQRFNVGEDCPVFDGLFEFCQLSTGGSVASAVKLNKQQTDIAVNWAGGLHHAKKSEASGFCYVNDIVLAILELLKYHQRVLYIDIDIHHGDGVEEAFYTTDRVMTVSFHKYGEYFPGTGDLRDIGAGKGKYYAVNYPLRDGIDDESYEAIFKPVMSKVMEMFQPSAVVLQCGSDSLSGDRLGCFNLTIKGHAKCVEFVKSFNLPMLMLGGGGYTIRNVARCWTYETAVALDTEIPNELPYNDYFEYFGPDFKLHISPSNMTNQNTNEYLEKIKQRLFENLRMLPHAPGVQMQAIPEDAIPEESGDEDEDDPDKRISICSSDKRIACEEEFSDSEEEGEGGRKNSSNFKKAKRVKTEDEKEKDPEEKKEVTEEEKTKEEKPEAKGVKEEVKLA

Row | Structure (SMILES) | IC50 [1] | IC50 [2] | EC50 [3] | EC50 [4] | IC50 [5] | EC50 [6] | IC50 [1, 12] | EC50 [7] | melting point | IC50 [2, 13] | selective inhibitions on HDAC6 [2] | IC50 [8] | IC50 [9] | IC50 [10] | IC50 [11]
1 | Cc1nc2cc(/C=C/C(=O)NO)ccc2c(=O)n1-c1ccccc1 [Compound 1c, (2E)-3-(3,4-dihydro-2-methyl-4-oxo-3-phenylquinazolin-7-yl)-N-hydroxyacrylamide] | 1000 to 10000 nM | < 100 nM |  |  |  |  |  |  |  |  |  |  |  |  | 
2 | CCc1nc2cc(/C=C/C(=O)NO)ccc2c(=O)n1CCCc1ccccc1 [Compound 1j, (2E)-3-(2-ethyl-3,4-dihydro-4-oxo-3-(3-phenylpropyl)quinazolin-7-yl)-N-hydroxyacrylamide] |  |  | 6.95 ± 0.82 µM | 6.95 ± 0.82 µM | 1000 to 10000 nM | 9.97 ± 1.17 µM | 1000 to 10000 nM | 9.97 ± 1.17 µM | 189 to 191 °C | < 100 nM | selective inhibitions on HDAC6 |  |  |  | 
3 | O=C(/C=C/c1ccc2c(=O)n(CCc3ccccc3)c(C3CC3)nc2c1)NO [Compound 1k, (2E)-3-(2-cyclopropyl-3,4-dihydro-4-oxo-3-phenethylquinazolin-7-yl)-N-hydroxyacrylamide] |  |  | 0.76 ± 0.69 µM | 0.76 ± 0.69 µM | 100 to 1000 nM | > 30 µM |  | > 30 µM | 204 to 206 °C (dec.) | < 100 nM |  |  |  |  | 
4 | CC(C)c1nc2cc(/C=C/C(=O)NO)ccc2c(=O)n1CCc1ccccc1 [Compound 1l, (2E)-3-(3,4-dihydro-2-isopropyl-4-oxo-3-phenethylquinazolin-7-yl)-N-hydroxyacrylamide] |  |  | 5.28 ± 0.51 µM | 5.28 ± 0.51 µM | 100 to 1000 nM | 6.74 ± 0.78 µM |  | 6.74 ± 0.78 µM | 173 to 174 °C (dec.) | < 100 nM |  |  |  |  | 
5 | CCc1nc2cc(/C=C/C(=O)NO)ccc2c(=O)n1CCc1ccc(OC)cc1 [Compound 1m] |  |  | 20.6 ± 3.12 µM | 20.6 ± 3.12 µM | 1000 to 10000 nM | 20.6 ± 2.51 µM | 100 to 1000 nM | 20.6 ± 2.51 µM | 215 to 217 °C | < 100 nM |  | 1 to 10 µM | 1 to 10 µM | 1 to 10 µM | 1 to 10 µM
6 | CCc1nc2cc(/C=C/C(=O)NO)ccc2c(=O)n1CCc1ccc(F)cc1 [Compound 1n, (2E)-3-(3-(4-fluorophenethyl)-2-ethyl-3,4-dihydro-4-oxoquinazolin-7-yl)-N-hydroxyacrylamide] |  |  | 13.9 ± 0.94 µM | 13.9 ± 0.94 µM | 1000 to 10000 nM | 22.2 ± 2.01 µM | 100 to 1000 nM | 22.2 ± 2.01 µM | 195 to 197 °C (dec.) | < 100 nM |  | 1 to 10 µM | 1 to 10 µM | 1 to 10 µM | 1 to 10 µM
7 | CCc1nc2cc(/C=C/C(=O)NO)c(F)cc2c(=O)n1CCc1ccccc1 [Compound 2a, (2E)-3-(2-ethyl-6-fluoro-3,4-dihydro-4-oxo-3-phenethylquinazolin-7-yl)-N-hydroxyacrylamide] |  |  | 1.66 ± 0.76 µM |  | 1000 to 10000 nM |  | 1000 to 10000 nM |  |  | < 100 nM | selective inhibitions on HDAC6 | 1 to 10 µM | 1 to 10 µM | 1 to 10 µM | 1 to 10 µM
8 | CCc1nc2cc(F)c(/C=C/C(=O)NO)cc2c(=O)n1CCc1ccccc1 [Compound 3a, (2E)-3-(2-ethyl-7-fluoro-3,4-dihydro-4-oxo-3-phenethylquinazolin-6-yl)-N-hydroxyacrylamide] |  |  | 0.78 ± 0.49 µM |  | 1000 to 10000 nM |  | 100 to 1000 nM |  | 183 to 185 °C (dec.) | < 100 nM | selective inhibitions on HDAC6 | ≥ 10 µM | 1 to 10 µM | ≥ 10 µM | ≥ 10 µM
9 | CCc1nc2cc(Cl)c(/C=C/C(=O)NO)cc2c(=O)n1CCc1ccccc1 [Compound 3b, (2E)-3-(7-chloro-2-ethyl-3,4-dihydro-4-oxo-3-phenethylquinazolin-6-yl)-N-hydroxyacrylamide] |  |  | 10.7 ± 1.26 µM | 10.7 ± 1.26 µM | > 10000 nM | 7.63 ± 0.74 µM | 1000 to 10000 nM | 7.63 ± 0.74 µM |  | 100 to 1000 nM |  | ≥ 10 µM | 1 to 10 µM | ≥ 10 µM | 0.1 to 1 µM
10 | CCc1nc2ccc(Cc3ccc(C(=O)NO)cc3)cc2c(=O)n1CCc1ccccc1 [Compound 4a, 4-((2-ethyl-3,4-dihydro-4-oxo-3-phenethylquinazolin-6-yl)methyl)-N-hydroxybenzamide] |  |  | 2.89 ± 0.45 µM | 2.89 ± 0.45 µM | 1000 to 10000 nM | 4.06 ± 0.58 µM | < 100 nM | 4.06 ± 0.58 µM |  | < 100 nM | selective inhibitions on HDAC6 |  |  |  | 
11 | CCc1nc2cc(Cc3ccc(C(=O)NO)cc3)ccc2c(=O)n1CCc1ccccc1 [Compound 4b, 4-((2-ethyl-3,4-dihydro-4-oxo-3-phenethylquinazolin-7-yl)methyl)-N-hydroxybenzamide] |  |  |  |  |  |  |  |  | 181 to 183 °C (dec.) | < 100 nM | selective inhibitions on HDAC6 | 0.1 to 1 µM | 1 to 10 µM | 1 to 10 µM | 1 to 10 µM
12 | CCc1nc2c(Cc3ccc(C(=O)NO)cc3)cccc2c(=O)n1CCc1ccccc1 [Compound 4c, 4-((2-ethyl-3,4-dihydro-4-oxo-3-phenethylquinazolin-8-yl)methyl)-N-hydroxybenzamide] | 100 to 1000 nM | 100 to 1000 nM | 5.34 ± 0.85 µM |  |  |  |  |  |  |  |  | 1 to 10 µM | ≥ 10 µM | ≥ 10 µM | ≥ 10 µM
13 | CCc1nc2c(-c3ccc(C(=O)NO)cc3)cccc2c(=O)n1CCc1ccccc1 [Compound 5a, 4-(2-ethyl-3,4-dihydro-4-oxo-3-phenethylquinazolin-8-yl)-N-hydroxybenzamide] |  |  |  |  |  |  |  |  | 202 to 204 °C (dec.) |  |  | ≥ 10 µM | ≥ 10 µM | ≥ 10 µM | 1 to 10 µM
